# Assay results: patent US10131652B2, “Pyrimidinyloxy benzene derivatives as herbicides” (E. I. DU PONT DE NEMOURS AND COMPANY, priority 2014, dated 2018)
# Assays:
# [1] = test system: cocklebur (common cocklebur, Xanthium strumarium); test: Test F pre-/postemergence plant response; type: in vivo; settings: scale 0 to 100
# Summary of the method: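 Formulation: non-phytotoxic solvent mix + surfactant. Preemergence: applied to seeded silt loam. Postemergence: foliar, 1- to 4-leaf plants, 2–18 cm. Greenhouse hold 14–21 days; visual score vs controls, 0 = no effect, 100 = complete control; dash = not tested.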
# [2] = test system: hardstem bulrush (Scirpus juncoides); test: Test G flooded paddy rice/weed plant response; type: in vivo; settings: Flood, 21 days, scale 0 to 100 (0 no effect, 100 complete control)
# Excerpt: (§1) Three plastic pots (ca. 16-cm diameter) per rate were partially filled with sterilized Tama silt loam soil comprising a 35:50:15 ratio of sand, silt and clay and 2.6% organic matter. Separate plantings for each of the three pots were as follows. Seeds from the U.S. of monochoria (Monochoria vaginalis), small-flower umbrella sedge (Cyperus difformis), hardstem bulrush (Scirpus juncoides), and redstem (purple redstem, Ammannia coccinea), were planted into one 16-cm pot for each rate. Seeds from the U.S. of rice flatsedge (Cyperus iria), bearded sprangletop (Leptochloa fascicularis), one stand of 9 or 10 water seeded rice seedlings (Indica rice, Oryza sativa), and two stands of 3 or 4 transplanted rice seedlings (Oryza sativa cv. ‘Japonica—M202’) were planted into one 16-cm pot for each rate. Seeds from the U.S. of bamyardgrass (Echinochloa crus-galli), and late watergrass (Echinochloa oryzicola) were planted into one 16-cm pot for each rate. Plantings were sequential so that crop and weed species were at the 2.0 to 2.5-leaf stage at time of treatment.
# (§2) Potted plants were grown in a greenhouse with day/night temperature settings of 30/27° C., and supplemental balanced lighting was provided to maintain a 16-hour photoperiod. Test pots were maintained in the greenhouse until test completion.
# (§3) At time of treatment, test pots were flooded to 3 cm above the soil surface, treated by application of test compounds directly to the paddy water, and then maintained at that water depth for the duration of the test. Effects of treatments on rice and weeds were visually evaluated by comparison to untreated controls after 21 days. Plant response ratings, summarized in Table G, are based on a scale of 0 to 100 where 0 is no effect and 100 is complete control. A dash (-) response means no test result.
# [3] = test system: barnyardgrass (Echinochloa crus-galli); test: Test G flooded paddy rice/weed plant response; type: in vivo; settings: Flood, 21 days, scale 0 to 100 (0 no effect, 100 complete control)
# Excerpt: as §1, §2, §3
# [4] = test system: redstem (purple redstem, Ammannia coccinea); test: Test G flooded paddy rice/weed plant response; type: in vivo; settings: Flood, 21 days, scale 0 to 100 (0 no effect, 100 complete control)
# Excerpt: as §1, §2, §3
# [5] = test system: late watergrass (Echinochloa oryzicola); test: Test G flooded paddy rice/weed plant response; type: in vivo; settings: Flood, 21 days, scale 0 to 100 (0 no effect, 100 complete control)
# Excerpt: as §1, §2, §3
# [6] = test system: water seeded rice seedlings (Indica rice, Oryza sativa); test: Test G flooded paddy rice/weed plant response; type: in vivo; settings: Flood, 21 days, scale 0 to 100 (0 no effect, 100 complete control)
# Excerpt: as §1, §2, §3
# [7] = test system: monochoria (Monochoria vaginalis); test: Test G flooded paddy rice/weed plant response; type: in vivo; settings: Flood, 21 days, scale 0 to 100 (0 no effect, 100 complete control)
# Excerpt: as §1, §2, §3
# [8] = test system: rice flatsedge (Cyperus iria); test: Test G flooded paddy rice/weed plant response; type: in vivo; settings: Flood, 21 days, scale 0 to 100 (0 no effect, 100 complete control)
# Excerpt: as §1, §2, §3
# [9] = test system: transplanted rice seedlings (Oryza sativa cv. ‘Japonica—M202’); test: Test G flooded paddy rice/weed plant response; type: in vivo; settings: Flood, 21 days, scale 0 to 100 (0 no effect, 100 complete control)
# Excerpt: as §1, §2, §3
# [10] = test system: small-flower umbrella sedge (Cyperus difformis); test: Test G flooded paddy rice/weed plant response; type: in vivo; settings: Flood, 21 days, scale 0 to 100 (0 no effect, 100 complete control)
# Excerpt: as §1, §2, §3
# [11] = test system: bearded sprangletop (Leptochloa fascicularis); test: Test G flooded paddy rice/weed plant response; type: in vivo; settings: Flood, 21 days, scale 0 to 100 (0 no effect, 100 complete control)
# Excerpt: as §1, §2, §3
structure (smiles),measurement,setting,value
"FC(F)c1cc(-c2ccccc2Oc2ncc(Cl)cn2)no1 [Compound 35, 5-chloro-2-[2-[5-(difluoromethyl)-3-isoxazolyl]phenoxy]pyrimidine]","Plant response rating, Cocklebur",[1]; 31 g ai/ha Preemergence,0
same,"Plant response rating, Cocklebur",[1]; 125 g ai/ha Preemergence,0
same,"Plant response rating, Bulrush, Hardstem",[2]; 32 g ai/ha,0
same,"Plant response rating, Bulrush, Hardstem",[2]; 64 g ai/ha,95
same,"Plant response rating, Bulrush, Hardstem",[2]; 125 g ai/ha,100
same,"Plant response rating, Bulrush, Hardstem",[2]; 250 g ai/ha,100
same,"Plant response rating, Barnyardgrass",[3]; 32 g ai/ha,30
same,"Plant response rating, Barnyardgrass",[3]; 64 g ai/ha,45
same,"Plant response rating, Barnyardgrass",[3]; 125 g ai/ha,100
same,"Plant response rating, Barnyardgrass",[3]; 250 g ai/ha,100
same,"Plant response rating, Redstem",[4]; 32 g ai/ha,0
same,"Plant response rating, Redstem",[4]; 64 g ai/ha,85
same,"Plant response rating, Redstem",[4]; 125 g ai/ha,90
same,"Plant response rating, Redstem",[4]; 250 g ai/ha,100
same,"Plant response rating, Watergrass, Late",[5]; 32 g ai/ha,0
same,"Plant response rating, Watergrass, Late",[5]; 64 g ai/ha,30
same,"Plant response rating, Watergrass, Late",[5]; 125 g ai/ha,40
same,"Plant response rating, Watergrass, Late",[5]; 250 g ai/ha,100
same,"Plant response rating, Rice, Water Seeded",[6]; 32 g ai/ha,60
same,"Plant response rating, Rice, Water Seeded",[6]; 64 g ai/ha,70
same,"Plant response rating, Rice, Water Seeded",[6]; 125 g ai/ha,100
same,"Plant response rating, Rice, Water Seeded",[6]; 250 g ai/ha,100
same,"Plant response rating, Monochoria",[7]; 32 g ai/ha,98
same,"Plant response rating, Monochoria",[7]; 64 g ai/ha,100
same,"Plant response rating, Monochoria",[7]; 125 g ai/ha,100
same,"Plant response rating, Monochoria",[7]; 250 g ai/ha,100
same,"Plant response rating, Flatsedge, Rice",[8]; 32 g ai/ha,100
same,"Plant response rating, Flatsedge, Rice",[8]; 64 g ai/ha,100
same,"Plant response rating, Flatsedge, Rice",[8]; 125 g ai/ha,100
same,"Plant response rating, Flatsedge, Rice",[8]; 250 g ai/ha,100
same,"Plant response rating, Rice, Transplanted",[9]; 32 g ai/ha,15
same,"Plant response rating, Rice, Transplanted",[9]; 64 g ai/ha,30
same,"Plant response rating, Rice, Transplanted",[9]; 125 g ai/ha,45
same,"Plant response rating, Rice, Transplanted",[9]; 250 g ai/ha,100
same,"Plant response rating, Sedge, Umbrella",[10]; 32 g ai/ha,0
same,"Plant response rating, Sedge, Umbrella",[10]; 64 g ai/ha,98
same,"Plant response rating, Sedge, Umbrella",[10]; 125 g ai/ha,100
same,"Plant response rating, Sedge, Umbrella",[10]; 250 g ai/ha,100
same,"Plant response rating, Sprangletop, Brdd.",[11]; 32 g ai/ha,60
same,"Plant response rating, Sprangletop, Brdd.",[11]; 64 g ai/ha,100
same,"Plant response rating, Sprangletop, Brdd.",[11]; 125 g ai/ha,100
same,"Plant response rating, Sprangletop, Brdd.",[11]; 250 g ai/ha,100
"Fc1cccc(Oc2ncc(Cl)cn2)c1-c1cc(C(F)F)on1 [Compound 55, 5-chloro-2-[2-[5-(difluoromethyl)-3-isoxazolyl]-3-fluorophenoxy]pyrimidine]","Plant response rating, Bulrush, Hardstem",[2]; 32 g ai/ha,80
same,"Plant response rating, Bulrush, Hardstem",[2]; 64 g ai/ha,100
same,"Plant response rating, Bulrush, Hardstem",[2]; 125 g ai/ha,100
same,"Plant response rating, Bulrush, Hardstem",[2]; 250 g ai/ha,100
same,"Plant response rating, Barnyardgrass",[3]; 32 g ai/ha,0
same,"Plant response rating, Barnyardgrass",[3]; 64 g ai/ha,75
same,"Plant response rating, Barnyardgrass",[3]; 125 g ai/ha,100
same,"Plant response rating, Barnyardgrass",[3]; 250 g ai/ha,100
same,"Plant response rating, Redstem",[4]; 32 g ai/ha,85
same,"Plant response rating, Redstem",[4]; 64 g ai/ha,95
same,"Plant response rating, Redstem",[4]; 125 g ai/ha,100
same,"Plant response rating, Redstem",[4]; 250 g ai/ha,100
same,"Plant response rating, Watergrass, Late",[5]; 32 g ai/ha,0
same,"Plant response rating, Watergrass, Late",[5]; 64 g ai/ha,0
same,"Plant response rating, Watergrass, Late",[5]; 125 g ai/ha,75
same,"Plant response rating, Watergrass, Late",[5]; 250 g ai/ha,100
same,"Plant response rating, Rice, Water Seeded",[6]; 32 g ai/ha,45
same,"Plant response rating, Rice, Water Seeded",[6]; 64 g ai/ha,100
same,"Plant response rating, Rice, Water Seeded",[6]; 125 g ai/ha,100
same,"Plant response rating, Rice, Water Seeded",[6]; 250 g ai/ha,100
same,"Plant response rating, Monochoria",[7]; 32 g ai/ha,100
same,"Plant response rating, Monochoria",[7]; 64 g ai/ha,100
same,"Plant response rating, Monochoria",[7]; 125 g ai/ha,100
same,"Plant response rating, Monochoria",[7]; 250 g ai/ha,100
same,"Plant response rating, Flatsedge, Rice",[8]; 32 g ai/ha,85
same,"Plant response rating, Flatsedge, Rice",[8]; 64 g ai/ha,100
same,"Plant response rating, Flatsedge, Rice",[8]; 125 g ai/ha,100
same,"Plant response rating, Flatsedge, Rice",[8]; 250 g ai/ha,100
same,"Plant response rating, Rice, Transplanted",[9]; 32 g ai/ha,20
same,"Plant response rating, Rice, Transplanted",[9]; 64 g ai/ha,60
same,"Plant response rating, Rice, Transplanted",[9]; 125 g ai/ha,80
same,"Plant response rating, Rice, Transplanted",[9]; 250 g ai/ha,100
same,"Plant response rating, Sedge, Umbrella",[10]; 32 g ai/ha,98
same,"Plant response rating, Sedge, Umbrella",[10]; 64 g ai/ha,100
same,"Plant response rating, Sedge, Umbrella",[10]; 125 g ai/ha,100
same,"Plant response rating, Sedge, Umbrella",[10]; 250 g ai/ha,100
same,"Plant response rating, Sprangletop, Brdd.",[11]; 32 g ai/ha,45
same,"Plant response rating, Sprangletop, Brdd.",[11]; 64 g ai/ha,80
same,"Plant response rating, Sprangletop, Brdd.",[11]; 125 g ai/ha,100
same,"Plant response rating, Sprangletop, Brdd.",[11]; 250 g ai/ha,100
"FC(F)c1cc(-c2ccccc2Oc2ncc(Br)cn2)no1 [Compound 62, 5-bromo-2-[2-[5-(difluoromethyl)-3-isoxazolyl]phenoxy]pyrimidine]",melting point,,89 to 93 °C
